This note sets out measurements from US5677336A, “Non-steroid androgen receptor antagonist compounds and methods” (Ligand Pharmaceuticals Incorporated, priority 1993, dated 1997).

SMILES strings stand for the structures. Where two headings read alike, the source gives them in different places.

In assay [1] the test system is progesterone receptor (PR-TI). The experiment in a line: Antagonist activity on progesterone receptor, CV-1 cells cotransfected with pRShPR-B altered at Tau-1 (PR-TI). Format: cell-based, human. Particulars: Table 2, CV-1 cells PR-TI; for Efficacy, PR-TI (% maximal response): comparable to that found with RU-486; for IC50: read-out: Potency, PR-TI (IC50). The source says: (§1) In the co-transfection assay, a cloned gene for an intracellular receptor (e.g., androgen receptor) is introduced by transfection (a procedure to induce cells to take up foreign genes) into a background cell substantially devoid of endogenous intracellular receptors. This introduced gene directs the recipient cells to make the intracellular receptor protein. A second gene is also introduced (co-transfected) into the same cells in conjunction with the intracellular receptor gene. This second gene functions as a reporter for the transcription-modulating activity of the target intracellular receptor. Thus, the reporter acts as a surrogate for the products normally expressed by a gene under control of the target receptor and its natural hormone. A preferred reporter gene is one which expresses the firefly enzyme luciferase.
(§2) The co-transfection assay can detect small molecule agonists or antagonists of target intracellular receptors. Exposing the cells to an agonist ligand increases reporter activity in the transfected cells. This activity can be conveniently measured, e.g., by increasing luciferase production, which reflects ligand-dependent, intracellular receptor-mediated increases in reporter transcription. To detect antagonists, the co-transfection assay is carried out in the presence of a constant concentration of an agonist (e.g., for androgen receptor, dihydrotestosterone) known to induce a defined reporter signal. Increasing concentrations of a test antagonist will decrease the reporter signal (e.g., luciferase production). The co-transfection assay is therefore useful to detect both agonists and antagonists of specific intracellular receptors. It determines not only whether a compound interacts with a particular intracellular receptor, but whether this interaction mimics (agonizes) or blocks (antagonizes) the effects of the natural regulatory molecules on target gene expression, as well as the specificity and strength of this interaction.
(§3) Co-transfected cells are exposed to a medium to which is added the potential ligand (compound) that is being evaluated. If the candidate compound diffuses into the cell, binds to the receptor, and the resulting receptor complex functions as an agonist, it will subsequently bind to the co-transfected reporter gene and initiate transcription. Typically, the reporter gene is one that expresses luciferase, which is capable of catalyzing a light-emitting reaction with its substrate luciferin. Thus, after cell lysis and the introduction of luciferin, the amount of light produced relative to the concentration of candidate compound used in the assay provides a measure of the potency and efficacy of the compound tested. Antagonist activity is evaluated by adding the candidate ligand and a known agonist to the co-transfected cells.
The specific activity of Compounds A-J was compared relative to their antagonist activity on the human progesterone receptor (PR) utilizing CV-1 cells cotransfected with plasmid pRShPR-B, as altered at the Tau-1 location (e.g., PR-TI)[specifically, hPR-B was excised from the vector pGEM3Z (69 Cell 703 (1992)); the Tau-1 fragment of the gluccocorticoid receptor was inserted into hPR-B at the unique HincII site in the N-terminal region; a Bst EII to BST bI fragment spanning the Tau-1 insertion was then used to replace the corresponding region in pRShPR-B]. […] Potency or IC50 is as reported for AR-wt transfected CV-1 cells.

A further assay has as its target T1, androgen receptor (Homo sapiens, UniProt P10275).
T1 construct: expressed in transfected cells; host or cells: CV-1 (monkey kidney fibroblast) cells, plasmid pRShAR, with reporter plasmid MTV-LUC
T1 sequence (P10275 1-920): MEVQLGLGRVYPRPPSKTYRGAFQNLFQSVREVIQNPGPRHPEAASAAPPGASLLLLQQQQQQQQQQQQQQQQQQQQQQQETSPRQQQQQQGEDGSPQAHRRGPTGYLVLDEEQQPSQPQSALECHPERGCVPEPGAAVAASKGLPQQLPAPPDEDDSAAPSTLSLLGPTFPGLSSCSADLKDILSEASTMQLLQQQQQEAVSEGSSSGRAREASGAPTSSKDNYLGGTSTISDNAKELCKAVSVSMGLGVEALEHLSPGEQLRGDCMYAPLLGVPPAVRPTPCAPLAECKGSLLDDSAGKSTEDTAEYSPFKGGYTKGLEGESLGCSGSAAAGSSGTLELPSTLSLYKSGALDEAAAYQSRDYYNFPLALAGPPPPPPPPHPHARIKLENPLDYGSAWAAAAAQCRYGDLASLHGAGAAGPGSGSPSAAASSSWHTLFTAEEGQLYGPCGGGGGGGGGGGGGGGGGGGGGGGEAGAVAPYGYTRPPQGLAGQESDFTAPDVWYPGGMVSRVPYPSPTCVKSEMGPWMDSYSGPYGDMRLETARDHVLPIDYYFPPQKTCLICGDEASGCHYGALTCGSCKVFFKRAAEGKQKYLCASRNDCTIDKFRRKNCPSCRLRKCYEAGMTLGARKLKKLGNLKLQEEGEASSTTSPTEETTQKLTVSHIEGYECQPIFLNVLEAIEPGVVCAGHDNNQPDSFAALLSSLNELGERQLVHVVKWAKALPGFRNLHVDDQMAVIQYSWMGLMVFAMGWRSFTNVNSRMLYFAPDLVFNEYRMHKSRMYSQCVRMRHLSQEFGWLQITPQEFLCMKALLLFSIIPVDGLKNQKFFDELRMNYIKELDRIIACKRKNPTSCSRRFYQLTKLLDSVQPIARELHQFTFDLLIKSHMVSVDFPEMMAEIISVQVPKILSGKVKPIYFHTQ
In words: Co-transfection androgen antagonist assay (CV-1 cells, pRShAR, MTV-LUC reporter; AR-wt). Format: cell-based. The conditions noted are these: for IC50: read-out: Potency (IC50, concentration required to reduce the maximal response by 50%).
Excerpt: The co-transfection assay provides a method for identifying functional ligands (either agonists which mimic, or antagonists which inhibit, the effect of hormones), and quantifying their activity for ligand-responsive receptor proteins. In this regard, the co-transfection assay mimics an in vivo system in the laboratory. Importantly, activity in the co-transfection assay correlates very well with known in vivo activity, such that the co-transfection assay functions as a quantitative predicator of a tested compounds in vivo pharmacology. See, e.g., T. Berger et al. 41 J. Steroid Biochem. Molec.
as §1, §2
as §3, with “cells. […]” for “cells.”

Setting [2] is: CV-1, Table 1, androgen antagonists, relative to 2-Hydroxy-flutamide, read-out: Efficacy (% maximal response relative to 2-Hydroxy-flutamide).
Setting [3] is: Table 2, CV-1 cells AR-wt, read-out: Efficacy, AR-wt.

Consider `O=[N+]([O-])c1ccc(C[C@@H]2CCCC[C@H]2O)cc1` (relative stereo) [I, trans-2-(4'-Nitrophenyl)methylcyclohexan-1-ol], for which the “Efficacy, PR-TI (% maximal response)” value in assay [1] is 99%. Also, the IC50 in assay [1] came to 360 nM; at androgen receptor (Table 1, androgen antagonists), 290 nM. The Emax at androgen receptor (setting [2]) and at androgen receptor (setting [3]) was 85% each time.
For the compound `COc1cc(C[C@@H]2CCCC[C@@]2(C)O)c(O)cc1Br` (relative stereo) [Q, trans-1-Methyl-2-(2'-hydroxy-4'-bromo-5'-methoxyphenyl)methylcyclohexan-1-ol], the Emax at androgen receptor (setting [2]) was 94%. Besides, the IC50 on androgen receptor (Table 1, androgen antagonists) was 460 nM.
Regarding `C=C1C[C@H](C)CC(C)(C)[C@@H]1Cc1cc(OC)c(Br)cc1O` (relative stereo) [S, cis-1Methylidene-2-(2'-hydroxy-4'-bromo-5'-methoxyphenyl)methyl-3,3,5-trimethyl-cyclohexane], on androgen receptor (setting [2]), the Emax stood at 92%. Further, the IC50 on androgen receptor (Table 1, androgen antagonists) turned out to be 500 nM.
With `C=C1[C@@H](Cc2cc(OC)c(Br)cc2O)C(C)(C)CC[C@@H]1O` [B, (1S,3S)-1-Hydroxy-2-methylidene-3-(2'-hydroxy-4'-bromo-5'-methoxyphenyl)methyl-4,4-dimethylcyclohexane], in assay [1], the “Efficacy, PR-TI (% maximal response)” value is on record as 98%. Also, the IC50 was 865 nM in assay [1] and 180 nM on androgen receptor (Table 1, androgen antagonists). Besides, the Emax at androgen receptor (setting [2]) and on androgen receptor (setting [3]) was 85% throughout.
As to `C=C1C=CCC(C)(C)C1Cc1ccccc1O` (stereo not drawn) [C, 1-Methylidene-6-(2'-hydroxyphenyl)methyl-5,5-dimethylcyclohex-2-ene], the “Efficacy, PR-TI (% maximal response)” value in assay [1] worked out at 20%. The IC50 in assay [1] was more than 10000 nM; on androgen receptor (Table 1, androgen antagonists) it was 210 nM. In addition, the Emax on androgen receptor (setting [2]) and on androgen receptor (setting [3]) was 82% in each case.
With `C=C1C=CCC(C)(C)C1Cc1cccc([N+](=O)[O-])c1` (stereo not drawn) [Compound A, 1-Methylidene-6-(3'-nitrophenyl)methyl-5,5-dimethylcyclohex-2-ene], the “Efficacy, PR-TI (% maximal response)” value in assay [1] is 45%. The IC50 is 3800 nM in assay [1] and 66 nM on androgen receptor (Table 1, androgen antagonists). Besides, the Emax at androgen receptor (setting [2]) and at androgen receptor (setting [3]) was 69% each time.
As to `C=C1CCCC(C)(C)C1Cc1ccccc1O` (stereo not drawn) [D], in assay [1], the “Efficacy, PR-TI (% maximal response)” value turned out to be 73%. Moreover, the IC50 in assay [1] was 3500 nM; on androgen receptor (Table 1, androgen antagonists), 220 nM. In addition, the Emax on androgen receptor (setting [2]) and at androgen receptor (setting [3]) was 92% each time.
Regarding `C=C1C=CC(Br)C(C)(C)[C@H]1Cc1cc(OC)c(Br)cc1OC(C)=O` (stereo partly drawn) [E, (4S,6S)-1-Methylidene-4-bromo-5-(2'-acetoxy-4'-bromo-5'-methyoxyphenyl)methyl-5,5-dimethylcyclohex-2-ene], in assay [1], the “Efficacy, PR-TI (% maximal response)” value came to 20%. In addition, the IC50 is more than 10000 nM in assay [1] and 230 nM at androgen receptor (Table 1, androgen antagonists). The Emax on androgen receptor (setting [2]) and at androgen receptor (setting [3]) was 60% in each case.
Take `C=C1CCC(C)(C)C1Cc1cc(OC)c(Br)cc1O` (stereo not drawn) [K, 1-Methylidene-2-(2'-hydroxy-4'-bromo-5'methoxyphenyl)methyl-3,3-dimethylcyclo-pentane]: at androgen receptor (setting [2]), the Emax was determined as 91%. Further, on androgen receptor (Table 1, androgen antagonists), the IC50 came out at 330 nM.
With `C=C1C=CC[C@@H](C)[C@@H]1Cc1cc(OC)c(Br)cc1OC(C)=O` [L, (5R,6S)-1-Methylidene-6-(2'-acetoxy-4'-bromo-5'-methoxyphenyl)methyl-5-methylcyclohex-2-ene], the Emax at androgen receptor (setting [2]) stood at 88%. The IC50 at androgen receptor (Table 1, androgen antagonists) turned out to be 370 nM.
For `C=C1C=C(C)C[C@@H](C)[C@@H]1Cc1cc(OC)c(Br)cc1OC(C)=O` [O, (5R,6S)-1-Methylidene-6-(2'-acetoxy-4'-bromo-5 '-methoxyphenyl)methyl-3,5-dimethyl-cyclohex-2-ene] the same measures were 78% and 390 nM.
Consider `C=C1[C@@H](Cc2cc(OC)c(Br)cc2O)C(C)(C)CC[C@@]1(C)O` [P, (1R,3S)-1-Hydroxy-2-methylidene-3-(2'-hydroxy-4'-bromo-5'-methoxyphenyl)methyl-1,4,4-trimethylcyclohexane], for which the Emax at androgen receptor (setting [2]) was determined as 88%. Moreover, the IC50 at androgen receptor (Table 1, androgen antagonists) turned out to be 420 nM.
For `C=C1[C@H](O)CCC(C)(C)[C@H]1Cc1cc(OC)c(Br)cc1O` [R, (1R,3R)-1-Hydroxy-2-methylidene-3-(2'-hydroxy-4'-bromo-5'-methoxyphenyl)methyl-4,4-dimethylcyclohexane] the same measures were 70% and 500 nM.
On the same counts, the results for `C=C1C=CCC(C)(C)C1Cc1ccc([N+](=O)[O-])c(C)c1` (stereo not drawn) [T, 1-Methylidene-6-(3'-methyl-4'-nitrophenyl)methyl-5,5-dimethylcyclohex-2-ene] are 88% and 545 nM.
For `C=C1C=C(C)CC(C)(C)C1Cc1ccc([N+](=O)[O-])c(C)c1` (stereo not drawn) [U, 1-Methylidene-6-(3'-methyl-4'-nitrophenyl)methyl-3,5,5-trimethylcyclohex-2-ene] the same measures were 69% and 565 nM.
As for `CC1(C)CCCC(=O)C1Cc1ccc([N+](=O)[O-])cc1` (stereo not drawn) [V, 2-(4'-Nitrophenyl)methyl-3.3-dimethylcyclohexan-1-one], at androgen receptor (setting [2]), the Emax amounted to 85%. Also, the IC50 on androgen receptor (Table 1, androgen antagonists) came to 590 nM.
For `C=C1C=CCC(C)(C)C1Cc1cc(OC)c(Br)cc1O` (stereo not drawn) [W, 1-Methylidene-6-(2'-hydroxy-4'-bromo-5'-methoxyphenyl)methyl-5,5-dimethylcyclo-hex-2-ene], the Emax at androgen receptor (setting [2]) turned out to be 89%. Besides, the IC50 on androgen receptor (Table 1, androgen antagonists) worked out at 610 nM.
On the same counts, the results for `COc1cc(CC2CCCCC2=O)c(O)cc1Br` (stereo not drawn) [Y, 2-(2'-hydroxy-4'-bromo-5 '-methoxyphenyl)methylcyclohex-1-one] are 67% and 340 nM.
